Measured values reported in patent US11980596B2 (priority 2017, dated 2024).

Assays:
[1] = tested on: subjects with MDD at imminent risk for suicide; test: Beck Scale for Suicidal Ideation (BSS) ([…]2001); type: in vivo, human
Procedure: The BSS is a 21-item self-reported instrument to detect and measure the severity of suicidal ideation in adults and adolescents aged 17 years and older. The BSS total score represents the severity of suicide ideation, and it is calculated by summing the ratings of the first 19 items; the total score ranges from 0 to 38, with a higher score representing greater suicide ideation. Increasing scores reflect increases in suicidal risk.

[2] = 14-day; 54 mg/day
Procedure: This study includes a single dose and 14-day repeated dose neurotoxicity studies with intranasally administered esketamine in female rats 12 to 14 weeks of age. These studies were conducted to investigate whether single or repeated intranasal administrations of esketamine induced neurodegenerative changes in the rat brain. The study results were used to estimate an esketamine exposure-based safety margin compared with the maximum dose of esketamine administered intranasally to depressed adult patients in clinical trials.
Each group of main study animals consisted of 12 female rats. Four satellite animals were added to the esketamine HCl-dosed groups of main study animals for TK purposes. The plasma exposure to esketamine was measured in these animals on the first and the last day of dosing at various time points up to and including 24 hours after the first instillation.

[3] = tested on: patients with treatment-resistant depression (TRD); test: CADSS (Example 7); settings: human, in vivo, other: intranasal
Procedure: Adverse events were monitored throughout the study. Other safety assessments (i.e., laboratory tests, vital signs, physical examination) were performed at pre-specified time points. Vital signs, the Clinician Administered Dissociative States Scale (CADSS; Bremner, “Measurement of dissociative states with the clinician-administered dissociative states scale (CADSS)”, J. Traumatic Stress, 1998, 11(1):125-136), and the 4-item positive symptom subscale from the Brief Psychiatric Rating Scale (BPRS; Overall, “The Brief Psychiatric Rating Scale. Psychological Reports”, 1962, 10:799-812) were assessed pre-dose, at 40 minutes, and 2 hours post-dose.

[4] = Pharmacokinetics of intranasal esketamine in healthy subjects (Example 9)
Procedure: Blood samples (4 mL each) for determination of esketamine and noresketamine plasma concentrations were collected into the appropriate collection tube (e.g., Vacutainer®) at timepoints 0.00, 0.12, 0.20, 0.37, 0.53, 0.67, 0.83, 1.00, 1.25, 1.50, 2.00, 3.00, 4.00, 6.00, 9.00, 12.00, 18.00, and 24.00 h. The total amount of blood to be drawn for clinical laboratory tests and PK evaluations is approximately 327 mL.
Plasma samples were analyzed for esketamine and noresketamine concentrations using the validated, specific and sensitive liquid chromatography coupled to tandem mass spectrometry (LC-MS/MS) achiral method of Example 8.
Serial PK blood samples (4 mL each) were collected for a 24-hour period from each subject (Periods 1, 2, and 3). […] Statistical Methods 1.6.4.1. Sample Size
The following key parameters of esketamine and noresketamine in plasma were calculated using noncompartmental methods and actual sampling times: Cmax, tmax, AUClast, AUC∞, t1/2,λ, and λz.

healthy subjects = test: Cardiac electrophysiology (QTc) study; type: in vivo, human
Procedure: The effect of SPRAVATO (84 mg nasal spray and 0.8 mg/kg esketamine intravenously infused over 40 minutes) on the QTc interval was evaluated in a randomized, double-blind, placebo-, and positive-controlled (moxifloxacin 400 mg), 4-period, crossover study in 60 healthy subjects.

[5] = Fertility study in male and female rats; type: in vivo, rat; settings: both sexes, rat, in vivo, inhaled or intranasal; read-out: NOAEL for mating and fertility
Procedure: (§1) The No Observed Adverse Effect Level (NOAEL) for mating and fertility is 45 mg/kg/day which is 0.6 times the esketamine exposures at MRHD of 84 mg/day.

male and female rats = test: Fertility study in male and female rats; type: in vivo, rat
Procedure: as §1

subjects with TRD [6] = settings: post dose
Procedure: The Clinician Administered Dissociative States Scale (CADSS) was measured prior to the start of each dose, at 40 minutes, and 1.5 hours postdose.

subjects with TRD [7] = settings: IND or OP/MA phases; among the 76 subjects
Text: The efficacy and safety analyses are based on the full (IND) analysis set and the full (OP/MA) analysis set. The full (IND) analysis set is defined as all subjects who receive at least 1 dose of intranasal study medication or 1 dose of oral antidepressant in the open-label IND phase (for direct-entry and transferred-entry non-responder subjects). The full (OP/MA) analysis is defined as all subjects who receive at least 1 dose of intranasal study medication or 1 dose of oral antidepressant in the OP/MA phase. Safety variables include cognition function over time, treatment-emergent adverse events (TEAEs), including TEAEs of special interest, vital signs over time, Clinician-Administered Dissociative Symptom Scale (CADDS) over time, and Modified Observer's Assessment of Alertness/Sedation (MOAA/S) score≤3.

[8] = Screening in vitro micronucleus test; settings: in the presence of metabolic activation
[9] = esketamine 84 mg minus placebo, ANCOVA LOCF
[10] = esketamine 84 mg, LOCF, ITT, N = 34
[11] = esketamine 84 mg, LOCF, ITT, N = 34, negative change = improvement
[12] = esketamine 84 mg, predose Day 1, ITT, N = 34

CN[C@]1(c2ccccc2Cl)CCCCC1=O [esketamine, (S)-2-(2-chlorophenyl)-2-(methylamino)cyclohexanone]
BSS total score: change vs placebo ([1]; 84 mg, Day 1: 4-hours postdose, Day 2 (DB), End Point (DB)): no statistically significant differences
BSS total score, change to Day 1 (DB): 4H, Diff. of LS Means (SE) [1, 9]: −2.3 (2.29)
BSS total score, change to Day 2 (DB), Diff. of LS Means (SE) [1, 9]: −1.9 (2.30)
BSS total score, change to End Point (DB), Diff. of LS Means (SE) [1, 9]: −1.7 (2.15)
BSS total score, Day 2 (DB), Median (Range) [1, 10]: 13.0 (0; 34)
BSS total score, End Point (DB), Mean (SD) [1, 10]: 4.7 (9.03)
BSS total score, End Point (DB), Median (Range) [1, 10]: 0.0 (0; 34)
BSS total score, Change from Baseline to Day 1 (DB): 4H, Median (Range) [1, 11]: −8.0 (−33; 8)
BSS total score, Change from Baseline to End Point (DB), Median (Range) [1, 11]: −21.0 (−33; 8)
BSS total score, Baseline (DB), Mean (SD) [1, 12]: 24.0 (5.45)
BSS total score, Baseline (DB), Median (Range) [1, 12]: 25.0 (8; 33)
AUC-based safety margin compared with the maximum 84 mg clinical dose [2]: ~11 fold
Cmax-based safety margin compared with the maximum 84 mg clinical dose [2]: approximately 17 fold
Perceptual changes/dissociative symptoms (CADSS): time of peak [3]: 30 to 40 min
Dose proportionality of mean plasma Cmax and AUC ([4]; 28-mg, 56-mg and 84-mg intranasal regimens): less than dose-proportional
AUC (AUClast and AUC∞) variability ([4]; esketamine): 25.0% to 30.4
Cmax variability (percent coefficient of variation) ([4]; esketamine, across the 3 treatment groups): 35.7% to 36.7
Increase in heart rate (healthy subjects; 84 mg nasal spray and 0.8 mg/kg intravenously over 40 minutes): > 10 bpm
QTc prolongation (healthy subjects; therapeutic dose): lack of clinically relevant QTc prolongation
NOAEL [5]: 45 mg/kg/day
Mean AUC exposure, multiple of the MRHD of 84 mg/day (male and female rats; 4.5 mg/kg/day intranasal): approximately 0.05 times
Mean AUC exposure, multiple of the MRHD of 84 mg/day (male and female rats; 15 mg/kg/day intranasal): ~0.3 times
Mean AUC exposure, multiple of the MRHD of 84 mg/day (male and female rats; 45 mg/kg/day intranasal): ~0.6 times
Dissociative/perceptual change symptoms (CADSS) resolved by (subjects with TRD [6]): ≤ 1.5 h
Subjects with an AE leading to discontinuation of intranasal esketamine considered related to esketamine (subjects with TRD [7]): 51 subjects
Genotoxicity [8]: Genotoxic effects
